In patent publication EP2787003A1, “Antimicrobial peptide produced by marine sponge-derived Bacillus subtilis” (priority 2013, dated 2014):

Key:
[1] = system: C. dubliniensis; assay: Spot on lawn assay; assay type: cell-based, Candida dubliniensis; set-up: key: +, clear halo of growth inhibition; ++: multiple +, increased activity as assessed visually by the increased diameter of the inhibition zone; +++: multiple +, increased activity as assessed visually by the increased diameter of the inhibition zone; ++++: multiple +, increased activity as assessed visually by the increased diameter of the inhibition zone; +++++: multiple +, increased activity as assessed visually by the increased diameter of the inhibition zone; -, no inhibition; conditions: indicator C. dubliniensis
Protocol: (§1) Antimicrobial activity of isolate MMA7 against the indicator strains was initially assessed with a deferred antagonism assay as described by Phelan et al. (2012). Subsequent testing of supernatants, crude extracts and purified compounds was carried out with a well and/or a spot on lawn assays. Essentially, 5 µl of samples were spotted onto 20 ml agar plates seeded with the indicator strain to a final OD600 of 0.015, or 30 µl aliquots were applied to a 5 mm well made on identical plates.

[2] = system: Candida strains; assay: Spot on lawn assay; assay type: cell-based; conditions: any of the Candida strains
Protocol: as §1
The activity of the purified peptide was tested together with its ASCE preparations, against the strains which were initially used as indicators on the colony overlay assay with the producing strain MMA7 (Table 4). […] No activity was detected against any of the Candida strains.

[3] = system: E. faecium; assay: Spot on lawn assay; assay type: cell-based, Euterococcous faecium NCIMB 11508; set-up: key: +, clear halo of growth inhibition; ++: multiple +, increased activity as assessed visually by the increased diameter of the inhibition zone; +++: multiple +, increased activity as assessed visually by the increased diameter of the inhibition zone; ++++: multiple +, increased activity as assessed visually by the increased diameter of the inhibition zone; +++++: multiple +, increased activity as assessed visually by the increased diameter of the inhibition zone; -, no inhibition; conditions: indicator E. faecium
Protocol: as §1

[4] = system: V. anguillarum; assay: Spot on lawn assay; assay type: cell-based, Listonella (Vibrio) anguillarum LMG 4410; set-up: key to Antimicrobial activity, spot on lawn assay: +, clear halo of growth inhibition; ++: multiple +, increased activity as assessed visually by the increased diameter of the inhibition zone; +++: multiple +, increased activity as assessed visually by the increased diameter of the inhibition zone; ++++: multiple +, increased activity as assessed visually by the increased diameter of the inhibition zone; +++++: multiple +, increased activity as assessed visually by the increased diameter of the inhibition zone; -, no inhibition
Protocol: as §1

[5] = system: L. monocytogenes and B. cereus; assay: Storage stability, bioactivity by spot on lawn assay; assay type: physicochemical
From the text: Untreated samples were used as controls.

[6] = system: P. aeruginosa; assay: Spot on lawn assay; assay type: cell-based, Pseudomonas aeruginosa PAO1; set-up: key: +, clear halo of growth inhibition; ++: multiple +, increased activity as assessed visually by the increased diameter of the inhibition zone; +++: multiple +, increased activity as assessed visually by the increased diameter of the inhibition zone; ++++: multiple +, increased activity as assessed visually by the increased diameter of the inhibition zone; +++++: multiple +, increased activity as assessed visually by the increased diameter of the inhibition zone; -, no inhibition; conditions: indicator P. aeruginosa; *activity only detected with 4 to 5 times more peptide than that used for the other indicators
Protocol: as §1

[7] = system: C. perfringens; assay type: cell-based, Clostridium perfringens NCDO 1799; set-up: key: +, clear halo of growth inhibition; ++: multiple +, increased activity as assessed visually by the increased diameter of the inhibition zone; +++: multiple +, increased activity as assessed visually by the increased diameter of the inhibition zone; ++++: multiple +, increased activity as assessed visually by the increased diameter of the inhibition zone; +++++: multiple +, increased activity as assessed visually by the increased diameter of the inhibition zone; -, no inhibition; conditions: indicator C. perfringens
[8] = system: L. monocytogenes; assay: Thermal stability, bioactivity by spot on lawn assay
[9] = system: C. lusitaniae; assay: Spot on lawn assay; assay type: cell-based, Candida lusitaniae; set-up: key: +, clear halo of growth inhibition; ++: multiple +, increased activity as assessed visually by the increased diameter of the inhibition zone; +++: multiple +, increased activity as assessed visually by the increased diameter of the inhibition zone; ++++: multiple +, increased activity as assessed visually by the increased diameter of the inhibition zone; +++++: multiple +, increased activity as assessed visually by the increased diameter of the inhibition zone; -, no inhibition; conditions: indicator C. lusitaniae
Protocol: as §1

[10] = system: hVISA; assay: Spot on lawn assay; assay type: cell-based, hVISA 35197; set-up: key: +, clear halo of growth inhibition; ++: multiple +, increased activity as assessed visually by the increased diameter of the inhibition zone; +++: multiple +, increased activity as assessed visually by the increased diameter of the inhibition zone; ++++: multiple +, increased activity as assessed visually by the increased diameter of the inhibition zone; +++++: multiple +, increased activity as assessed visually by the increased diameter of the inhibition zone; -, no inhibition; conditions: indicator hVISA
[11] = system: L. lactis HP; assay: Spot on lawn assay; assay type: cell-based, Lactococcus lactis HP; set-up: key: +, clear halo of growth inhibition; ++: multiple +, increased activity as assessed visually by the increased diameter of the inhibition zone; +++: multiple +, increased activity as assessed visually by the increased diameter of the inhibition zone; ++++: multiple +, increased activity as assessed visually by the increased diameter of the inhibition zone; +++++: multiple +, increased activity as assessed visually by the increased diameter of the inhibition zone; -, no inhibition; conditions: indicator L. lactis HP
Protocol: as §1

[12] = system: Alteromonas sp.; assay: Spot on lawn assay; assay type: cell-based; set-up: key to Antimicrobial activity, spot on lawn assay: +, clear halo of growth inhibition; ++: multiple +, increased activity as assessed visually by the increased diameter of the inhibition zone; +++: multiple +, increased activity as assessed visually by the increased diameter of the inhibition zone; ++++: multiple +, increased activity as assessed visually by the increased diameter of the inhibition zone; +++++: multiple +, increased activity as assessed visually by the increased diameter of the inhibition zone; -, no inhibition
Protocol: as §1

[13] = target: proteinase K (Parengyodontium album, UniProt P06873); assay: Susceptibility to proteolytic enzymes, bioactivity by spot on lawn assay; conditions: proteinase K 1 mg ml^-1, 37 °C, 1 h; indicator L. monocytogenes
[14] = target: α-chymotrypsin (Bos taurus, UniProt P00766); assay: as above; conditions: α-chymotrypsin 1 mg ml^-1, 37 °C, 1 h; indicator L. monocytogenes

Sequence of proteinase K (P06873 106-384): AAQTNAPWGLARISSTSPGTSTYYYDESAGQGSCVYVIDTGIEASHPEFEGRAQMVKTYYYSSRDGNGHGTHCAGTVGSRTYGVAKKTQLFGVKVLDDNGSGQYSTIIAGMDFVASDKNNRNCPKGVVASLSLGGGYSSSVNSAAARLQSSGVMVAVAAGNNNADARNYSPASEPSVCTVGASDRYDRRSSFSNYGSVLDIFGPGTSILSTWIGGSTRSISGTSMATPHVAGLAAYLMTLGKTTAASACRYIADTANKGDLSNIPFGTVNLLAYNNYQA

SMILES: C=C1NC(=O)[C@@H]2CSC[C@@H](NC(=O)[C@@H]3CS[C@@H](C)[C@H]4NC(=O)[C@H](Cc5ccccc5)NC(=O)[C@H](NC(=O)[C@H](CCCNC(=N)N)NC(=O)[C@@H]5CSC[C@@H](NC(=O)[C@H](CCC(N)=O)NC(=O)[C@@H](NC(=O)[C@@H](NC(=O)/C(=C/C)NC(=O)[C@H](CCCCN)NC(=O)CNC(=O)[C@@H](NC(=O)/C(=C/C)NC(=O)[C@H](C)NC(=O)[C@H](Cc6c[nH]c7ccccc67)NC(=O)C(=O)CC)[C@@H](C)CC)[C@@H](C)CC)C(C)C)C(=O)N[C@@H](C(C)C)C(=O)N[C@@H](CCCCN)C(=O)N[C@@H](CCCCN)C(=O)N5)[C@H](C)SC[C@H](NC4=O)C(=O)NCC(=O)N3)C(=O)N[C@@H](CC(C)C)C(=O)NCC(=O)N[C@H](CSC[C@@H](C(=O)N[C@@H](CC(N)=O)C(=O)O)NC(=O)[C@H](CC(N)=O)NC1=O)C(=O)N2 [Subtilomycin]
- Antimicrobial activity, spot on lawn assay [1]: -
- Antimicrobial activity [2]: No activity
- Antimicrobial activity, spot on lawn assay [3]: -
- Amount of peptide needed for detectable activity relative to that required to inhibit the Gram-positive indicators ([4]; V. anguillarum): four to five fold more peptide
- Antimicrobial activity, spot on lawn assay ([4]; indicator V. anguillarum, *activity only detected with 4 to 5 times more peptide than that used for the other indicators): +*
- Activity after storage ([5]; after 5 months storage at -20 °C and -80 °C): No activity
- Activity after storage ([5]; stored at 4 °C and room temperature, after two weeks): lost their activity
- Period of storage with retained activity ([5]; stored at -20 °C and -80 °C, spot on lawn against L. monocytogenes and B. cereus): up to 4 months
- Antimicrobial activity, spot on lawn assay [6]: +*
- Antimicrobial activity, spot on lawn assay [7]: -
- Activity after heat treatment ([8]; 100 °C for 1 hr, L. monocytogenes): no activity
- Activity after heat treatment ([8]; wide range of temperatures, including 100 °C for 30 minutes): stable
- Antimicrobial activity, spot on lawn assay [9]: -
- Antimicrobial activity, spot on lawn assay [10]: +
- Antimicrobial activity, spot on lawn assay [11]: +
- Amount of peptide needed for detectable activity relative to that required to inhibit the Gram-positive indicators ([12]; Alteromonas sp.): four to five fold more peptide
- Antimicrobial activity, spot on lawn assay ([12]; indicator Alteromonas sp., *activity only detected with 4 to 5 times more peptide than that used for the other indicators): +*
- Antimicrobial activity after proteolytic treatment [13]: None of the treatments resulted in a decrease of activity
- Antimicrobial activity after proteolytic treatment [14]: None of the treatments resulted in a decrease of activity
